Assay results from ChEMBL document CHEMBL2311340, “Chemical constituents from the fruit of Gardenia jasminoides and their inhibitory effects on nitric oxide production” (Bioorg Med Chem Lett, 2013).

system: RAW264.7; experiment: Inhibition of nitric oxide production in lipopolysaccharide-activated mouse RAW264.7 cells by Griess reaction based method; format: functional, cell-based

SMILES | IC50
COC(=O)C1=CO[C@@H](O[C@@H]2O[C@H](CO[C@H]3O[C@H](CO)[C@@H](O)[C@H](O)[C@H]3O)[C@@H](O)[C@H](O)[C@H]2O)[C@@H]2C(CO)=CC[C@H]12 | > 100 µM
CC(/C=C/C=C(\C)C(=O)O[C@@H]1O[C@H](CO)[C@@H](O)[C@H](O)[C@H]1O)=C\C=C\C=C(C)\C=C\C=C(/C)C(=O)O[C@@H]1O[C@H](CO[C@@H]2O[C@H](CO)[C@@H](O)[C@H](O)[C@H]2O)[C@@H](O)[C@H](O)[C@H]1O | > 100 µM
COC(=O)C1=CO[C@@H](O[C@@H]2O[C@H](CO[C@@H]3O[C@H](COC(=O)/C=C/c4ccc(O)c(O)c4)[C@@H](O)[C@H](O)[C@H]3O)[C@@H](O)[C@H](O)[C@H]2O)[C@@H]2C(CO)=CC[C@H]12 | > 100 µM
COC(=O)C1=CO[C@@H](O[C@@H]2O[C@H](CO[C@@H]3OC[C@](O)(CO)[C@H]3O)[C@@H](O)[C@H](O)[C@H]2O)[C@@H]2C(CO)=CC[C@H]12 | > 100 µM
COC(=O)C1=CO[C@@H](O[C@@H]2O[C@H](CO[C@H]3OC[C@@H](O)[C@H](O)[C@H]3O)[C@@H](O)[C@H](O)[C@H]2O)[C@@H]2C(CO)=CC[C@H]12 | > 100 µM
COC(=O)C1=CO[C@@H](O)[C@@H]2C(CO)=C[C@@H](O)[C@H]12 | 28.7 µM
COC(=O)C1=CO[C@@H](O[C@@H]2O[C@H](CO[C@@H]3O[C@@H](C)[C@H](O)[C@@H](O)[C@H]3O)[C@@H](O)[C@H](O)[C@H]2O)[C@@H]2C(CO)=CC[C@H]12 | > 100 µM
COC(=O)C1=CO[C@@H](O[C@@H]2O[C@H](CO)[C@@H](O)[C@H](O)[C@H]2O)[C@@H]2C(CO)=C[C@@H](O)[C@H]12 | > 100 µM
CC(/C=C/C=C(\C)C(=O)O[C@@H]1O[C@H](CO[C@@H]2O[C@H](CO)[C@@H](O)[C@H](O)[C@H]2O)[C@@H](O)[C@H](O)[C@H]1O)=C\C=C\C=C(C)\C=C\C=C(/C)C(=O)O[C@@H]1O[C@H](CO[C@@H]2O[C@H](CO)[C@@H](O)[C@H](O)[C@H]2O)[C@@H](O)[C@H](O)[C@H]1O [CROCIN] | > 100 µM
COC(=O)C1=CO[C@@H](O[C@@H]2O[C@H](CO)[C@@H](O[C@@H]3O[C@H](CO)[C@@H](O)[C@H](O)[C@H]3O)[C@H](O)[C@H]2O)[C@@H]2C(CO)=CC[C@H]12 [GENAMESIDE C] | > 100 µM
COC(=O)C1=CO[C@@H](O[C@@H]2O[C@H](CO)[C@@H](O)[C@H](O)[C@H]2O)[C@@H]2C(CO[C@@H]3O[C@H](CO)[C@@H](O)[C@H](O)[C@H]3O)=CC[C@H]12 [GENAMESIDE D] | > 100 µM
COC(=O)C1=CO[C@@H](O[C@@H]2O[C@H](CO[C@@H]3O[C@H](CO)[C@@H](O)[C@H](O)[C@H]3O)[C@@H](O)[C@H](O)[C@H]2O)[C@@H]2C(CO)=CC[C@H]12 [GENIPIN GENTIOBIOSIDE] | > 100 µM
COC(=O)C1=CO[C@@H](O)[C@@H]2C(CO)=CC[C@H]12 [GENIPIN] | 11.1 µM
COC(=O)C1=CO[C@@H](O[C@@H]2O[C@H](CO)[C@@H](O)[C@H](O)[C@H]2O)[C@@H]2C(CO)=CC[C@H]12 [GENIPOSIDE] | > 100 µM
CC1=C(C(=O)O[C@@H]2O[C@H](CO[C@@H]3O[C@H](CO)[C@@H](O)[C@H](O)[C@H]3O)[C@@H](O)[C@H](O)[C@H]2O)C(C)(C)CC=C1 [JASMINOSIDE R] | > 100 µM
CC1=C(C(=O)O[C@@H]2O[C@H](CO[C@@H]3O[C@H](CO)[C@@H](O)[C@H](O)[C@H]3O)[C@@H](O)[C@H](O)[C@H]2O)C(C)(C)CCC1 [JASMINOSIDE S] | > 100 µM
CC1=CC(=O)CC(C)(C)[C@H]1CO[C@@H]1O[C@H](CO[C@@H]2OC[C@](O)(CO)[C@H]2O)[C@@H](O)[C@H](O)[C@H]1O [JASMINOSIDE T] | > 100 µM
CC(/C=C/C=C(\C)C(=O)O)=C\C=C\C=C(C)\C=C\C=C(/C)C(=O)O [TRANSCROCETIN] | 5.99 µM
